Like-named read-outs stand apart in the source and are kept apart here.
Experiment: Plasma pharmacokinetics after IV and PO administration
Assay type: in vivo, male Sprague–Dawley rats
Conditions: male, Sprague-Dawley, rat, plasma; for bioavailability: PO 10 mg/kg vs IV 1 mg/kg
Description: LZQ‐02‐023‐1 was administered to male Sprague–Dawley (SD) rats (n = 3 per group) via intravenous injection at a dose of 1 mg/kg or oral gavage at a dose of 10 mg/kg. Blood samples were collected at predetermined time points, and plasma concentrations of LZQ‐02‐023‐1 were determined using a validated LC‐MS/MS method. Briefly, working solutions of the analyte were prepared by diluting stock solutions with 50% acetonitrile in water to achieve serial concentrations (10, 20, 50, 100, 200, 500, 1000, 5000, and 10 000 ng/mL). Calibration standards were prepared by spiking 5 µL of working solution into 50 µL of blank SD rat plasma, resulting in final concentrations of 1, 2, 5, 10, 20, 50, 100, 500, and 1000 ng/mL in a total volume of 55 µL. Quality control (QC) samples were independently prepared at four concentrations (2, 5, 50, and 800 ng/mL) using blank SD rat plasma, following the same procedure as for the calibration standards. On the day of analysis, 55 µL of each calibration standard, QC sample, or unknown sample (prepared by mixing 50 µL of SD rat plasma with 5 µL of blank solution) was added to 200 µL of acetonitrile:methanol (1:1, v/v) containing an internal standard (IS) mixture for protein precipitation. The samples were vortexed for 30 s, centrifuged at 4000 rpm for 15 min at 4 °C, and the resulting supernatant was diluted threefold with water. A 10 µL aliquot of the diluted supernatant was injected into an AB Sciex Triple Quad 5500 LC‐MS/MS system for quantitative analysis. Pharmacokinetic parameters, including the maximum plasma concentration (Cmax), time to reach Cmax (Tmax), elimination half‐life (t1⁄2), area under the plasma concentration‐time curve (AUC0–t and AUC0–∞), clearance (CL), and volume of distribution (Vd), were calculated using noncompartmental analysis (NCA) in Phoenix WinNonlin 8.3 (Certara; Table S3, Supporting Information).

[1] = iv, 1 mg/kg, IV 1 mg/kg, individual rats R01-R03, read-out: Plasma concentration
[2] = iv, 1 mg/kg, IV 1 mg/kg, read-out: Plasma concentration, mean
[3] = po, 10 mg/kg, PO 10 mg/kg, read-out: Plasma concentration, mean
[4] = po, 10 mg/kg, PO 10 mg/kg, individual rats R04-R06, read-out: Plasma concentration

With Cc1ccc(Nc2ncc3c(n2)N(C)C(=O)N(c2cccc(N)c2)C3)cn1 [LZQ-02-023-01, Three‐(3‐aminophenyl)‐1‐methyl‐7‐((6‐methylpyridin‐3‐yl)amino)‐3,4‐dihydropyrimido [4,5‐d] pyrimidin‐2 (1H)‐one] the concentration at 0.25 h [1] was 28.6 ng/mL, the concentration at 0.25 h [2] was 30.3 ng/mL and the concentration at 0.5 h [1] was 10.9 ng/mL. For the same compound, the concentration at 0.5 h [2] was 13.1 ng/mL, the concentration at 1 h [1] was 4.26 ng/mL and the concentration at 1 h [2] was 4.21 ng/mL. It also gave a concentration at 2 h [1] of 2.35 ng/mL, a concentration at 2 h [2] of 2.11 ng/mL and an AUC(0-inf) (iv, 1 mg/kg, IV 1 mg/kg, individual rats R01-R03, read-out: AUCInf) of 168 ng·h/mL. It also gave an AUC(0-t) (iv, 1 mg/kg, IV 1 mg/kg, individual rats R01-R03, read-out: AUClast) of 165 ng·h/mL, a C0 (iv, 1 mg/kg, IV 1 mg/kg, individual rats R01-R03, read-out: C0) of 2110 ng/mL and a clearance (iv, 1 mg/kg, IV 1 mg/kg, individual rats R01-R03, read-out: Cl_obs) of 99.3 mL/min/kg. The MRT inf (iv, 1 mg/kg, IV 1 mg/kg, individual rats R01-R03, read-out: MRTInf_obs) was 7.8 min, the half-life (iv, 1 mg/kg, IV 1 mg/kg, individual rats R01-R03, read-out: T1/2 (converted)) was 43.3 min and the AUC(0-inf) (iv, 1 mg/kg, IV 1 mg/kg, read-out: AUCInf, mean) was 178 ng·h/mL. It also gave an AUC(0-t) (iv, 1 mg/kg, IV 1 mg/kg, read-out: AUClast, mean) of 176 ng·h/mL, a clearance (iv, 1 mg/kg, IV 1 mg/kg, read-out: Cl_obs, mean) of 94.2 mL/min/kg and an MRT inf (iv, 1 mg/kg, IV 1 mg/kg, read-out: MRTInf_obs, mean) of 6.96 min. The half-life (iv, 1 mg/kg, IV 1 mg/kg, read-out: T1/2, mean (converted)) was 37.2 min, the half-life (iv, 1 mg/kg, IV administration, male SD rats, read-out: Plasma half-life (converted)) was ~37.2 min and the bioavailability (po, 10 mg/kg, individual rats R04-R06, read-out: F (bioavailability)) was 1.82%. The bioavailability (po, 10 mg/kg, read-out: F (bioavailability), mean) was 1.82%, the concentration at 0.25 h [3] was 23.9 ng/mL and the concentration at 0.5 h [4] was 14.1 ng/mL. It also gave a concentration at 0.5 h [3] of 18.1 ng/mL, a concentration at 1 h [3] of 5.83 ng/mL and a concentration at 2 h [3] of 6.5 ng/mL. For the same compound, the concentration at 4 h [4] was 1.99 ng/mL, the concentration at 4 h [3] was 1.79 ng/mL and the AUC(0-inf) (po, 10 mg/kg, PO 10 mg/kg, individual rats R04-R06, read-out: AUCInf) was 32.4 ng·h/mL. The Cmax (po, 10 mg/kg, PO 10 mg/kg, individual rats R04-R06, read-out: Cmax) was 39 ng/mL, the MRT inf (po, 10 mg/kg, PO 10 mg/kg, individual rats R04-R06, read-out: MRTInf_obs) was 111 min and the Tmax (po, 10 mg/kg, PO 10 mg/kg, individual rats R04-R06, read-out: Tmax) was 15 min. For the same compound, the AUC(0-inf) (po, 10 mg/kg, PO 10 mg/kg, read-out: AUCInf, mean) was 32.3 ng·h/mL, the AUC(0-t) (po, 10 mg/kg, PO 10 mg/kg, read-out: AUClast, mean) was 28.6 ng·h/mL and the Cmax (po, 10 mg/kg, PO 10 mg/kg, read-out: Cmax, mean) was 27.7 ng/mL. For the same compound, the MRT inf (po, 10 mg/kg, PO 10 mg/kg, read-out: MRTInf_obs, mean) was 114 min, the half-life (po, 10 mg/kg, PO 10 mg/kg, read-out: T1/2, mean (converted)) was 90.6 min and the Tmax (po, 10 mg/kg, PO 10 mg/kg, read-out: Tmax, mean) was 20 min. It also gave a half-life (po, 10 mg/kg, PO administration, male SD rats, read-out: Plasma half-life (converted)) of ~90.6 min.

— PMC12752606, “METTL10‐Mediated PIAS3 Methylation Links Purine Metabolism to Gastric Cancer Progression” (Advanced Science, 2025)
